One data set deals with tumor cells. Briefly: Sytox primary screen, inhibition of growth of tumor cells. The following applies: compound in DMSO, 48 hours exposure, Sytox read. It counts as cell-based. The method, then:
The ability of Compound 1, in DMSO, to inhibit the growth of tumor and normal cells was measured. The compound was assayed by the Sytox primary screen, a phenotypic assay which monitors alterations in cell survival-proliferation as a result of compound treatment. It was devised as high throughput method to identify compounds which specifically alter the growth potential of cells harboring the causative mutations found in cancer patients while not affecting the growth of normal cells. The assay relies upon an inexpensive, simple and reliable readout of a membrane impermeable fluorescent dye (Sytox, from Molecular Probes) which binds to nucleic acid. In healthy cells, no signal is detected because the cell's membrane is intact and the dye will not enter. However, if a cell's membrane is compromised as a result of apoptosis or necrosis, a fluorescent signal proportional to the number of similarly affected cells will be detected. By utilizing a two-step readout (final read in the presence of detergent to permit labeling of all cells), the assay can identify compounds which produce cytostasis, cytotoxicity and/or mitogenesis. The first read or “dead cell” read, provides an estimate of the toxicity of a given compound by indicating the number of dead or dying cells in the culture at the time of assay. […]

The test system of the next data set is HT-1080 cells. Briefly: Sytox assay, inhibition of growth of HT-1080 cells. It counts as cell-based. The following applies: Homo sapiens, 48 hours exposure. The method, then: The ability of Compound 1, in DMSO, to inhibit the growth of tumor and normal cells was measured. The compound was assayed by the Sytox primary screen, a phenotypic assay which monitors alterations in cell survival-proliferation as a result of compound treatment. It was devised as high throughput method to identify compounds which specifically alter the growth potential of cells harboring the causative mutations found in cancer patients while not affecting the growth of normal cells. The assay relies upon an inexpensive, simple and reliable readout of a membrane impermeable fluorescent dye (Sytox, from Molecular Probes) which binds to nucleic acid. In healthy cells, no signal is detected because the cell's membrane is intact and the dye will not enter. However, if a cell's membrane is compromised as a result of apoptosis or necrosis, a fluorescent signal proportional to the number of similarly affected cells will be detected. By utilizing a two-step readout (final read in the presence of detergent to permit labeling of all cells), the assay can identify compounds which produce cytostasis, cytotoxicity and/or mitogenesis. The first read or “dead cell” read, provides an estimate of the toxicity of a given compound by indicating the number of dead or dying cells in the culture at the time of assay. The second read or “total cell” read, captures both the cumulative effects of cytoxicity in reducing the size of the cell population as well as any cytostatic or anti-proliferative effects a test compound may exert on the cells in the test population in the absence of toxicity.
Cells were seeded overnight in 96 well plates at densities that without treatment would permit 95% confluence in the wells 72 hours later. The following day, the cells were exposed to test compounds in a dilution series for a period of 48 hours. Following this incubation period, the Sytox reagent was added to the cultures at the manufacturer's recommended concentration and the dead cell fluorescence read was taken. After completion of this measurement, the detergent Saponin was added to each well of the cultures to permeabilize the membranes allowing the Sytox reagent to enter every cell, thereby facilitating measurement of the total number of cells remaining in the culture.
The ability of various compounds of the invention, in DMSO, to inhibit the growth of HT-1080 cells was measured. The HT-1080 cell line used in these experiments was derived from a patient with fibrosarcoma and harbors an activating mutation in the N-ras gene at codon 12. The compound was assayed using the assay described in Example 3. The results of the assay are shown in the table below, where the activity corresponds to the following ranges: A—less than 10 nM, B—10-100 nM, C—100-1000 nM, D—1000-2000 nM, E—greater than 2000 nM.

Data set [1] is described as follows: IV maximum tolerated dose (MTD). The following applies: Nude Balb/c, mouse, in vivo, QD x 5 days, mice.
Another data set has as its system HT-1080 xenografts. Briefly: HT-1080 tumor xenograft, daily IV administration for 5 days. It counts as in vivo. The following applies: nude Balb/c mice, QD x 5 days. How it is done:
The ability of compounds 10 and 25 to inhibit the growth of HT-1080 xenografts following daily, intravenous administration was examined using similar methods (described below). Compounds 10 and 25 were administered for 5 consecutive days and were evaluated at their respective IV MTD doses.
The HT-1080 cell line used in this xenograft study was derived from a patient with fibrosarcoma and harbors an activating mutation in the N-ras gene at codon 12. […] Robust tumor regression was observed when the compounds were administered at their respective MTD. No adverse clinical signs were observed
Nude Balb/c (Nu/Nu strain, Charles River Laboratories), female, 5-6 wks. old (˜22 g average body weight).
• A: Untreated Control, n=6 • B: Vehicle Control for Compound 10, QD×5 days, IV, n=6 • D: Compound 10 @ 25 mg/Kg (MTD), QD×5 days, IV, n=6 • E: Compound 10 @ 12.5 mg/Kg (½ MTD), QD×5 days, IV, n=6 Treatment Schedule: […]
Starting on Day 1, all animals were weighed, and tumor dimensions (L & W) were measured, every other day. […]
The resulting tumor volume values were averaged for each study group for each time point, and were then plotted against time. Variance was expressed as standard error of the mean (±SEM).

Setting [2] is: Sytox read, read-out: IC50, inhibition of proliferation of HT-1080 cells.
Where [3] appears, read: compound in DMSO, Sytox assay of Example 3, read-out: Activity (inhibition of growth of HT-1080 cells).

SMILES strings stand for the structures. Like-named read-outs stand apart in the source and are kept apart here. Where only a bound is given, the exact number is not on record here.

We go through 18 compounds from patent US8575143B2, “3-aryl-substituted quinazolones, and uses thereof” (Prolexys Pharmaceuticals, Inc., priority 2005, dated 2013).

As for `CCOc1ccccc1-n1c(C(C)N2CCN(C(=O)COc3ccc(Cl)cc3)CC2)nc2cc(Cl)ccc2c1=O` (centres unmarked) [Compound 1, 2-(1-(4-(2-(4-chlorophenoxy)acetyl)piperazin-1-yl)ethyl)-7-chloro-3-(2-ethoxyphenyl)quinazolin-4(3H)-one], the IC50 in the data set on tumor cells was around 10 µM.

In the case of `CCOc1ccccc1-n1c(CN2CCNCC2)nc2cccc(Cl)c2c1=O` [Compound 2, 5-chloro-3-(2-ethoxyphenyl)-2-(piperazin-1-ylmethyl)quinazolin-4(3H)-one], the IC50 was 100 nM with HT-1080 cells (setting [2]) and 10 to 100 nM in the data set with HT-1080 cells (setting [3]).

As for `CCOc1cc([N+](=O)[O-])ccc1-n1c(CN2CCCNCC2)nc2ccccc2c1=O` [Compound 3, 2-((1,4-diazepan-1-yl)methyl)-3-(2-ethoxy-4-nitrophenyl)quinazolin-4(3H)-one], the values for the IC50 in the data set on HT-1080 cells (setting [2]) and with HT-1080 cells (setting [3]) were 200 nM and 100 to 1000 nM, respectively.

The compound `CCOc1ccccc1-n1c(C(C)N2CCCN(C)CC2)nc2cc(N)ccc2c1=O` (centres unmarked) [Compound 10, 7-amino-3-(2-ethoxyphenyl)-2-(1-(4-methyl-1,4-diazepan-1-yl)ethyl)quinazolin-4(3H)-one] gave an MTD at 5 days in data set [1] of 25 mg/kg. In addition, the IC50 with HT-1080 cells (setting [3]) was below 10 nM. Besides, the “inhibition in growth of HT-1080 cell xenograft” value in the data set on HT-1080 xenografts is “inhibition in growth”.

Regarding `CCOc1ccccc1-n1c(CN2CCCN(C)CC2)nc2cc(NCCOC)ccc2c1=O` [Compound 11, 3-(2-ethoxyphenyl)-7-(2-methoxyethylamino)-2-((4-methyl-1,4-diazepan-1-yl)methyl)quinazolin-4(3H)-one], the IC50 in the data set with HT-1080 cells (setting [3]) was above 2000 nM.

Regarding `CCOc1ccccc1-n1c(C(C)N2CCCN(C)CC2)nc2cc([N+](=O)[O-])ccc2c1=O` (centres unmarked) [Compound 12, 3-(2-ethoxyphenyl)-2-(1-(4-methyl-1,4-diazepan-1-yl)ethyl)-7-nitroquinazolin-4(3H)-one], the IC50 in the data set on HT-1080 cells (setting [3]) is 100 to 1000 nM.

In the case of `CN1CCCN(Cc2nc3cc(N)ccc3c(=O)n2-c2ccc(F)cc2Cl)CC1` [Compound 13, 7-amino-3-(2-chloro-4-fluorophenyl)-2-((4-methyl-1,4-diazepan-1-yl)methyl)quinazolin-4(3H)-one], in the data set with HT-1080 cells (setting [3]), the IC50 was above 2000 nM.

Take `Nc1ccc2c(=O)n(-c3ccc(F)cc3Cl)c(CN3CCNCC3)nc2c1` [Compound 14, 7-amino-3-(2-chloro-4-fluorophenyl)-2-(piperazin-1-ylmethyl)quinazolin-4(3H)-one]: the IC50 in the data set with HT-1080 cells (setting [3]) is above 2000 nM.

Take `CCOc1ccccc1-n1c(CN2CCCN(C)CC2)nc2cc(NCCN3CCOCC3)ccc2c1=O` [Compound 15, 3-(2-ethoxyphenyl)-2-((4-methyl-1,4-diazepan-1-yl)methyl)-7-(2-morpholinoethylamino)quinazolin-4(3H)-one]: the IC50 with HT-1080 cells (setting [3]) lay within 100 to 1000 nM.

For `CCOc1ccccc1-n1c(CN2CCCN(C)CC2)nc2cc(C(F)(F)F)ccc2c1=O` [Compound 16, 3-(2-ethoxyphenyl)-2-((4-methyl-1,4-diazepan-1-yl)methyl)-7-(trifluoromethyl)quinazolin-4(3H)-one], the IC50 in the data set with HT-1080 cells (setting [3]) lay in the range of 100 to 1000 nM.

For the compound `O=c1c2ccccc2nc(CN2CCNCC2)n1-c1c(F)cc(F)cc1Cl` [Compound 17, 3-(2-chloro-4,6-difluorophenyl)-2-(piperazin-1-ylmethyl)quinazolin-4(3H)one], the IC50 in the data set with HT-1080 cells (setting [3]) was in the range of 100 to 1000 nM.

In the case of `CN1CCCN(Cc2nc3ccccc3c(=O)n2-c2c(F)cc(F)cc2Cl)CC1` [Compound 18, 3-(2-chloro-4,6-difluorophenyl)-2-((4-methyl-1,4-diazepan-1-yl)methyl)quinazolin-4(3H)-one], the IC50 with HT-1080 cells (setting [3]) lay in the range of 100 to 1000 nM.

For the compound `CCOc1cc(F)ccc1-n1c(CN2CCCN(C)CC2)nc2cc(N)ccc2c1=O` [Compound 19, 7-amino-3-(2-ethoxy-4-fluorophenyl)-2-((4-methyl-1,4-diazepan-1-yl)methyl)quinazolin-4(3H)-one], the IC50 in the data set on HT-1080 cells (setting [3]) was below 10 nM.

On to `CN1CCCN(Cc2nc3ccccc3c(=O)n2-c2ccc(OC(F)(F)F)cc2Cl)CC1` [Compound 20, 3-(2-chloro-4-(trifluoromethoxy)phenyl)-2-((4-methyl-1,4-diazepan-1-yl)methyl)quinazolin-4(3H)-one], for which the IC50 in the data set with HT-1080 cells (setting [3]) lay within 10 to 100 nM.

On to `O=c1c2ccccc2nc(CN2CCNCC2)n1-c1ccc(OC(F)(F)F)cc1Cl` [Compound 21, 3-(2-chloro-4-(trifluoromethoxy)phenyl)-2-(piperazin-1-ylmethyl)quinazolin-4(3H)-one], for which the IC50 with HT-1080 cells (setting [3]) lay within 100 to 1000 nM.

As for `CN1CCCN(Cc2nc3cc(N)ccc3c(=O)n2-c2c(Cl)cccc2Cl)CC1` [Compound 22, 7-amino-3-(2,6-dichlorophenyl)-2-((4-methyl-1,4-diazepan-1-yl)methyl)quinazolin-4(3H)-one], the IC50 in the data set on HT-1080 cells (setting [3]) lay in the range of 100 to 1000 nM.

As to `CCOc1ccccc1-n1c(CN2CCCN(C)CC2)nc2cc(F)ccc2c1=O` [Compound 24, 3-(2-ethoxyphenyl)-7-fluoro-2-((4-methyl-1,4-diazepan-1-yl)methyl)quinazolin-4(3H)-one], the IC50 in the data set on HT-1080 cells (setting [3]) fell in the range of 100 to 1000 nM.

Regarding `CCOc1ccccc1-n1c(CN2CCCN(C)CC2)nc2cc(N)ccc2c1=O` [Compound 25, 7-amino-3-(2-ethoxyphenyl)-2-((4-methyl-1,4-diazepan-1-yl)methyl)quinazolin-4(3H)-one], the IC50 in the data set on HT-1080 cells (setting [3]) is below 10 nM. In the data set with HT-1080 xenografts, the “inhibition in growth of HT-1080 cell xenograft” value is on record as “inhibition in growth”.

The term MTD denotes the highest dose tested that stayed within the study's limit of toxicity. Higher therefore signals better tolerability.
